The conditions of this series: 298.44 K, Pendant drop shape.

The source of these data is the NIST ThermoML archive (doi:10.1016/j.jct.2015.08.006).

By surface tension liquid-gas is commonly meant the force per length acting along the surface.

Numbers after ± are expanded uncertainties.

Take `O` [water]: the surface tension liquid-gas is 71.9 ± 0.6 mN/m.
